Several values for one entry are separate records, joined by “and”; a condition that tells them apart may be missing. Identical values can stand only once.
Legend:
Type in all cases: in vivo, Brassica napus
[1] = system: Brassica plants comprising mutant AHAS alleles; test: Greenhouse post-emergence spray test (5 g a.i./ha): survival and plant type rating; design: key to number of surviving plants in plant type 4 / number of surviving plants in plant type 5 / number of surviving plants in plant type 2: 5: normal (corresponding to wildtype unsprayed phenotype); 4: normal height, some side branching, normal leaves; 3: intermediate height, intermediate side branching, normal leaves; 2: short, severe side branching (“bushy”), some leave malformations; 1: short, severe side branching (“bushy”), severe leave malformations; conditions: 5 g a.i./ha post-emergence
Protocol: The correlation between the presence of missense and/or full knockout AHAS alleles in a Brassica plant grown in the greenhouse and tolerance to thiencarbazone-methyl was determined as follows. Of the Brassica plants identified in Example 1 and 2, crosses were made to obtain plants comprising both mutant AHAS1 and AHAS3 alleles (F1), which were subsequently backcrossed and selfed (BC1S1). Single gene AHAS missense mutants were backcrossed twice (BC2). These BC1S1 (representing all possible genotype combinations), as well as BC2 single AHAS gene mutant plants (50%+/+, 50%+/−), were sown in a greenhouse. Treatment post-emergence at the 1-2 leaf stage was carried out with a dose of 5 g a.i./ha of thiencarbazone-methyl and surviving plants were transplanted to 9 cm pots 10 days after spraying. The plants were evaluated for phenotype (height, side branching and leave morphology) 20 days after transplantation on scale of 5 to 1, where; type 5=normal (corresponding to wildtype unsprayed phenotype); type 4=normal height, some side branching, normal leaves; type 3=intermediate height, intermediate side branching, normal leaves; type 2=short, severe side branching (“bushy”), some leave malformations; type 1=short, severe side branching (“bushy”), severe leave malformations (Table 4).

[2] = system: Brassica plants comprising mutant AHAS alleles; test: Greenhouse pre-planting application (20 g a.i./ha): vigor scores; conditions: for vigor score Av, pre-planting (2, 3 and 4 weeks after treatment): 20 g a.i./ha
Protocol: In another experiment, the effect of combining AHAS full knockouts with AHAS missense herbicide tolerant alleles on tolerance to thiencarbazone-methyl pre-planting application and thiencarbazone-methyl post-emergence spraying was tested in the greenhouse. To this end, the Brassica plants identified in Example 1 and 2 were backcrossed two times with an elite parent line, and subsequently selfed twice to obtain homozygous plants (BC2S2). Treatment pre-planting was carried out on the soil just after sowing with a dose of 20 g a.i./ha of thiencarbazone methyl. For assessment of vigor scores, plants were evaluated on a scale of 1 to 9, where 1=dead, 3=poor, 6=some aberrant phenotype and 9=vigorous. The vigor scores are an average of the scores taken at 2, 3 and 4 weeks after treatment. Treatment post-emergence at the first leaf stage was carried out with a dose of 10 g a.i./ha of thiencarbazone-methyl. The vigor scores are an average of the scores taken 1, 2 and 3 weeks after the treatment. The average values (Av) and standard deviations (SD) of the vigor scores are represented in Table 6.

[3] = system: Brassica plants comprising mutant AHAS alleles; test: Field trial, post-emergence treatment (0, 10, 20 g a.i./ha), location A: PPTOX and VIG1 scores; conditions: for vigor1 (VIG1) score, Av: 7 days after spray
Protocol: The correlation between the presence of full knockout and missense AHAS genes in Brassica plants on plant growth and herbicide tolerance of the Brassica plants in the field on location A was also tested upon post-emergence herbicide treatment. The field setup was the same as for the pre-planting field trial. Post-emergence treatment was carried out on the 2-4 leaf stage with a rate of 0 (treatment A), 10 (treatment B), 20 (treatment C) g a.i./ha of thiencarbazone methyl. The phytotoxicity (PPTOX) and vigor1 (VIG1; vigor scores 7 days after herbicide spray) were determined as described above. The average values (Av) and standard deviations (SD) of the scores for the different parameters are represented in Table 9.

[4] = BC1S1 HETO108/HETO102, 204 sown, 201 germinated
[5] = BC1S1 HETO108/HETO103, 204 sown, 199 germinated
[6] = BC1S1 HETO108/HETO104, 204 sown, 200 germinated
[7] = BC1S1 HETO112/HETO111, 204 sown, 204 germinated
[8] = BC2 HETO108, 51 sown, 50 germinated
[9] = BC2 HETO111, 51 sown, 49 germinated
[10] = Elite parent line plants, 10 g a.i./ha (treatment B) post-emergence
[11] = Elite parent line plants, 20 g a.i./ha (treatment C) post-emergence
[12] = plants AHAS1 HETO108 / AHAS3 HETO104, 10 g a.i./ha (treatment B) post-emergence
[13] = plants AHAS1 HETO108 / AHAS3 HETO104, 20 g a.i./ha (treatment C) post-emergence
[14] = plants AHAS1 HETO108 / AHAS3 HETO111, 10 g a.i./ha (treatment B) post-emergence
[15] = plants AHAS1 HETO108 / AHAS3 HETO111, 20 g a.i./ha (treatment C) post-emergence
[16] = plants AHAS1 HETO108 / AHAS3 WT, 10 g a.i./ha (treatment B) post-emergence
[17] = plants AHAS1 HETO108 / AHAS3 WT, 20 g a.i./ha (treatment C) post-emergence
[18] = plants AHAS1 HETO112 / AHAS3 HETO111, 10 g a.i./ha (treatment B) post-emergence
[19] = plants AHAS1 HETO112 / AHAS3 HETO111, 20 g a.i./ha (treatment C) post-emergence
[20] = plants AHAS1 HETO112 / AHAS3 WT, 10 g a.i./ha (treatment B) post-emergence
[21] = plants AHAS1 HETO112 / AHAS3 WT, 20 g a.i./ha (treatment C) post-emergence
[22] = plants AHAS1 WT / AHAS3 HETO104, 10 g a.i./ha (treatment B) post-emergence
[23] = plants AHAS1 WT / AHAS3 HETO104, 20 g a.i./ha (treatment C) post-emergence
[24] = plants AHAS1 WT / AHAS3 HETO111, 10 g a.i./ha (treatment B) post-emergence
[25] = plants AHAS1 WT / AHAS3 HETO111, 20 g a.i./ha (treatment C) post-emergence
[26] = plants AHAS1 WT / AHAS3 WT, 10 g a.i./ha (treatment B) post-emergence
[27] = plants AHAS1 WT / AHAS3 WT, 20 g a.i./ha (treatment C) post-emergence

## COC(=O)c1csc(C)c1S(=O)(=O)NC(=O)n1nc(OC)n(C)c1=O [thiencarbazone-methyl, methyl 4-[(4,5-dihydro-3-methoxy-4-methyl-5-oxo-1H-1,2,4-triazol-1-yl)carbonylsulfamoyl]-5-methylthiophene-3-carboxylate]
[1]; [4]
  number of surviving plants in plant type 1: 108
  number of surviving plants in plant type 2: 34
  number of surviving plants in plant type 3: 21
  number of surviving plants in plant type 4: 1
  number of surviving plants in plant type 5: 0
  number of surviving plants transplanted after spraying (trans): 169
[1]; [5]
  number of surviving plants in plant type 1: 88
  number of surviving plants in plant type 2: 18
  number of surviving plants in plant type 3: 41
  number of surviving plants in plant type 4: 4
  number of surviving plants in plant type 5: 0
  number of surviving plants transplanted after spraying (trans): 151
[1]; [6]
  number of surviving plants in plant type 1: 66
  number of surviving plants in plant type 2: 18
  number of surviving plants in plant type 3: 28
  number of surviving plants in plant type 4: 2
  number of surviving plants transplanted after spraying (trans): 115
[1]; BC1S1 HETO108/HETO104, 204 sown, 200 germinated (probably missed during spraying)
  number of surviving plants in plant type 5: 1
[1]; [7]
  number of surviving plants in plant type 1: 94
  number of surviving plants in plant type 2: 23
  number of surviving plants in plant type 3: 35
  number of surviving plants in plant type 4: 0
  number of surviving plants in plant type 5: 0
  number of surviving plants transplanted after spraying (trans): 152
[1]; [8]
  number of surviving plants in plant type 1: 20
  number of surviving plants in plant type 2: 2
  number of surviving plants in plant type 3: 0
  number of surviving plants in plant type 4: 0
  number of surviving plants in plant type 5: 0
  number of surviving plants transplanted after spraying (trans): 22
[1]; [9]
  number of surviving plants in plant type 1: 22
  number of surviving plants in plant type 2: 0
  number of surviving plants in plant type 3: 0
  number of surviving plants in plant type 4: 0
  number of surviving plants in plant type 5: 0
  number of surviving plants transplanted after spraying (trans): 25
[1]; wt, 51 sown, 51 germinated
  number of surviving plants in plant type 1: 0
  number of surviving plants in plant type 2: 0
  number of surviving plants in plant type 3: 0
  number of surviving plants in plant type 4: 0
  number of surviving plants in plant type 5: 0
  number of surviving plants transplanted after spraying (trans): 0
[2]; AHAS1 +/+, AHAS3 +/+ (HETO108+HETO104 series)
  vigor score Av, pre-planting (2, 3 and 4 weeks after treatment): 1.3
[2]; AHAS1 +/+, AHAS3 +/+ (HETO108+HETO111 series)
  vigor score Av, pre-planting (2, 3 and 4 weeks after treatment): 1.4
[2]; AHAS1 +/+, AHAS3 +/+ (HETO112+HETO111 series)
  vigor score Av, pre-planting (2, 3 and 4 weeks after treatment): 1.4
[2]; AHAS1 +/+, AHAS3 HETO104/HETO104
  vigor score Av, pre-planting (2, 3 and 4 weeks after treatment): 1.3
[2]; AHAS1 +/+, AHAS3 HETO111/HETO111 (HETO108+HETO111 series)
  vigor score Av, pre-planting (2, 3 and 4 weeks after treatment): 5.2
[2]; AHAS1 +/+, AHAS3 HETO111/HETO111 (HETO112+HETO111 series)
  vigor score Av, pre-planting (2, 3 and 4 weeks after treatment): 4.8
[2]; AHAS1 HETO108/HETO108, AHAS3 +/+ (HETO108+HETO104 series)
  vigor score Av, pre-planting (2, 3 and 4 weeks after treatment): 5.3
[2]; AHAS1 HETO108/HETO108, AHAS3 +/+ (HETO108+HETO111 series)
  vigor score Av, pre-planting (2, 3 and 4 weeks after treatment): 4.4
[2]; AHAS1 HETO108/HETO108, AHAS3 HETO104/HETO104
  vigor score Av, pre-planting (2, 3 and 4 weeks after treatment): 6.1
[2]; AHAS1 HETO108/HETO108, AHAS3 HETO111/HETO111
  vigor score Av, pre-planting (2, 3 and 4 weeks after treatment): 7.6
[2]; AHAS1 HETO112/HETO112, AHAS3 +/+
  vigor score Av, pre-planting (2, 3 and 4 weeks after treatment): 1.4
[2]; AHAS1 HETO112/HETO112, AHAS3 HETO111/HETO111
  vigor score Av, pre-planting (2, 3 and 4 weeks after treatment): 5.6
[2]; Elite parent line treated
  vigor score Av, pre-planting (2, 3 and 4 weeks after treatment): 1.8
[2]; pre-planting treatment, greenhouse
  thiencarbazone-methyl tolerance of plants homozygous for a missense allele and a full knock-out allele, versus missense allele with other AHAS gene homozygous wild-type: higher
[3]; [10]
  phytotoxicity (PPTOX) score, Av: 1.00
  vigor1 (VIG1) score, Av: 2.33
[3]; [11]
  phytotoxicity (PPTOX) score, Av: 1.00
  vigor1 (VIG1) score, Av: 2.33
[3]; [12]
  phytotoxicity (PPTOX) score, Av: 5.00
  vigor1 (VIG1) score, Av: 5.00
[3]; [13]
  phytotoxicity (PPTOX) score, Av: 4.00
  vigor1 (VIG1) score, Av: 4.00
[3]; [14]
  phytotoxicity (PPTOX) score, Av: 6.67
  vigor1 (VIG1) score, Av: 6.67
[3]; [15]
  phytotoxicity (PPTOX) score, Av: 6.00
  vigor1 (VIG1) score, Av: 6.00
[3]; [16]
  phytotoxicity (PPTOX) score, Av: 6.00 and 5.67
  vigor1 (VIG1) score, Av: 6.00 and 5.67
[3]; [17]
  phytotoxicity (PPTOX) score, Av: 4.33
  vigor1 (VIG1) score, Av: 4.67 and 4.33
[3]; [18]
  phytotoxicity (PPTOX) score, Av: 5.00
  vigor1 (VIG1) score, Av: 5.00
[3]; [19]
  phytotoxicity (PPTOX) score, Av: 4.67
  vigor1 (VIG1) score, Av: 4.67
[3]; [20]
  phytotoxicity (PPTOX) score, Av: 1.00
  vigor1 (VIG1) score, Av: 2.00
[3]; [21]
  phytotoxicity (PPTOX) score, Av: 1.00
  vigor1 (VIG1) score, Av: 1.67
[3]; [22]
  phytotoxicity (PPTOX) score, Av: 1.00
  vigor1 (VIG1) score, Av: 1.67
[3]; [23]
  phytotoxicity (PPTOX) score, Av: 1.00
  vigor1 (VIG1) score, Av: 1.67
[3]; [24]
  phytotoxicity (PPTOX) score, Av: 5.33 and 5.67
  vigor1 (VIG1) score, Av: 5.33
[3]; [25]
  phytotoxicity (PPTOX) score, Av: 4.67
  vigor1 (VIG1) score, Av: 4.67
[3]; [26]
  phytotoxicity (PPTOX) score, Av: 1.00
  vigor1 (VIG1) score, Av: 1.67
[3]; [27]
  phytotoxicity (PPTOX) score, Av: 1.00
  vigor1 (VIG1) score, Av: 2.00

Source: patent US20120255051A1, “HERBICIDE TOLERANT PLANTS” (priority 2009, published 2012)
